Measured values from patent US9850283B2, “Macrocyclic inhibitors of the PD-1/PD-L1 and CD80(B7-1)/PD-L1 protein/protein interactions” (BRISTOL-MYERS SQUIBB COMPANY, priority 2013, dated 2017).
Starred links: 1 amine or outer side, 2 acyl side, 3 side chain; linkers in the order of their positions; H or OH if unused. Positions of bridges follow the written chain, without caps; N, C: chain ends. Non-standard residues stand in square brackets, D forms with d. Residues, ends and D or L forms follow the SMILES beside them. Tyr(3-Br) = N[C@@H](Cc1ccc(O)c(Br)c1)C(=O)O; X16 = O=C([C@@H]1CC[C@H](O)CN1[*:1])[*:2]; Bta = N[C@@H](Cc1csc2ccccc12)C(=O)O; Hyp = O=C(O)[C@@H]1C[C@@H](O)CN1; NMeNle = CCCC[C@H](NC)C(=O)O; NMeA = CN[C@@H](C)C(=O)O; Dab = NCC[C@H](N)C(=O)O; Dap = NC[C@H](N)C(=O)O; Sar = CNCC(=O)O

Assays:
[1] = target: T1, Human PD-L1/PD-1 (Homo sapiens, UniProt Q9NZQ7); assay: HTRF PD-1-Ig/PD-L1-His binding assay (human PD-L1); conditions: cluster symbol; read-out: HTRF IC50 cluster
T1 construct: made in house; host or cells: HEK293T
T1 sequence (Q9NZQ7 with tags, fused parts or gaps): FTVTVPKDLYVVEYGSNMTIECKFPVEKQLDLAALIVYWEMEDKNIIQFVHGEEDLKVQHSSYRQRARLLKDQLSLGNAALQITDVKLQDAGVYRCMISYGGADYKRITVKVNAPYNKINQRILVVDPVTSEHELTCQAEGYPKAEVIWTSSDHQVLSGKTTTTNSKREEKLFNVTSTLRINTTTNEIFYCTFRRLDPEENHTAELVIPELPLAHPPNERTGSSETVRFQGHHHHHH
Method in brief: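 Readout: time-resolved FRET between Eu cryptate-labeled anti-Ig (1 nM final) and APC-labeled anti-His (20 nM final) antibodies. These detect interaction of Fc-fused PD-1 with His-tagged human PD-L1 in dPBS containing 0.1% BSA and 0.05% Tween-20.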

[2] = target: T2, LK35.2-hPD-L1 cells / PE-labeled PD-1-Ig (Homo sapiens, UniProt Q9NZQ7); assay: LK35.2-hPD-L1 cell binding high-content screening assay; assay type: cell-based; conditions: cell binding assay, cell line not given; cluster symbol; read-out: CBA IC50 cluster
T2 construct: expressed in transfected cells; host or cells: LK35.2 mouse B cell line
T2 sequence (Q9NZQ7 19-290): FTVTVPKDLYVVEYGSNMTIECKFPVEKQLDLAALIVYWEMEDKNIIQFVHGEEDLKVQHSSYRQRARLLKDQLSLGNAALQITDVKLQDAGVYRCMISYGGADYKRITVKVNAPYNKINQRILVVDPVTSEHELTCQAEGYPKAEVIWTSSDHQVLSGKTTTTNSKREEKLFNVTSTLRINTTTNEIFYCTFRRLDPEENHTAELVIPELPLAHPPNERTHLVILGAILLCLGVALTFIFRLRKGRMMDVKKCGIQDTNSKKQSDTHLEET
Method in brief: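 Mouse LK35.2 B cells stably over-expressing human PD-L1, cultured overnight, treated with compound plus PE-labeled human PD-1-Ig (1 nM final) in RPMI/10% FCS for 1 h at 37 °C. After washing, bound fluorescence quantified by high-content imaging.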

Compound	IC50 [1] [nM]	IC50 [2] [nM]
CCCC[C@H]1C(=O)N(C)[C@@H](CCCC)C(=O)N[C@@H](CC(C)C)C(=O)N[C@H](C(=O)NCC(N)=O)CSCC(=O)N[C@@H](Cc2ccc(O)cc2)C(=O)N(C)[C@@H](C)C(=O)N[C@@H](CC(N)=O)C(=O)N2CCC[C@H]2C(=O)N[C@@H](Cc2cnc[nH]2)C(=O)N[C@@H](CC(C)C)C(=O)N2C[C@H](O)C[C@H]2C(=O)N[C@@H](Cc2c[nH]c3ccccc23)C(=O)N[C@@H](CO)C(=O)N[C@@H](Cc2c[nH]c3ccccc23)C(=O)N1C [Example 6025]	0.385 to 6.74	0.158 to 4.71
CCCC[C@H]1C(=O)N(C)[C@@H](CCCC)C(=O)N[C@@H](CC(C)C)C(=O)N[C@H](C(=O)NCC(N)=O)CSCC(=O)N[C@@H](Cc2ccc(O)cc2)C(=O)N(C)[C@@H](C)C(=O)N[C@@H](CC(=O)O)C(=O)N2CCC[C@H]2C(=O)N[C@@H](Cc2cnc[nH]2)C(=O)N[C@@H](CCC(=O)O)C(=O)N2C[C@H](O)C[C@H]2C(=O)N[C@@H](Cc2c[nH]c3ccccc23)C(=O)N[C@@H](CO)C(=O)N[C@@H](Cc2c[nH]c3ccccc23)C(=O)N1C [Example 6026] ({CH2CO}-Y[NMeA]DPHE[Hyp]WSW[NMeNle][NMeNle]LCG-NH2; thioether N-14)	0.385 to 6.74	0.158 to 4.71
CCCC[C@H]1C(=O)N(C)[C@@H](CCCC)C(=O)N[C@@H](CC(C)C)C(=O)N[C@H](C(=O)NCC(N)=O)CSCC(=O)N[C@@H](Cc2ccc(O)cc2)C(=O)N(C)[C@@H](C)C(=O)N[C@@H](CC(=O)O)C(=O)N2CCC[C@H]2C(=O)N[C@@H](Cc2cnc[nH]2)C(=O)N[C@@H](CC(C)C)C(=O)N2C[C@H](O)C[C@H]2C(=O)N[C@@H](Cc2c[nH]c3ccccc23)C(=O)N[C@@H](CCN)C(=O)N[C@@H](Cc2c[nH]c3ccccc23)C(=O)N1C [Example 6027] ({CH2CO}-Y[NMeA]DPHL[Hyp]W[Dab]W[NMeNle][NMeNle]LCG-NH2; thioether N-14)	0.385 to 6.74	0.158 to 4.71
CCCC[C@H]1C(=O)N(C)[C@@H](CCCC)C(=O)N[C@@H](CCCNC(=N)N)C(=O)N[C@H](C(=O)NCC(N)=O)CSCC(=O)N[C@@H](Cc2ccc(O)cc2)C(=O)N(C)[C@@H](C)C(=O)N[C@@H](CC(N)=O)C(=O)N2CCC[C@H]2C(=O)N[C@@H](CN)C(=O)N[C@@H](CC(N)=O)C(=O)N2C[C@H](O)C[C@H]2C(=O)N[C@@H](Cc2c[nH]c3ccccc23)C(=O)N[C@@H](CO)C(=O)N[C@@H](Cc2csc3ccccc23)C(=O)N1C [Example 6028] ({CH2CO}-Y[NMeA]NP[Dap]N[Hyp]WS[Bta][NMeNle][NMeNle]RCG-NH2; thioether N-14)	6.76 to 30.3	0.158 to 4.71
CCCC[C@H]1C(=O)N(C)[C@@H](COc2cccc(C)c2)C(=O)N[C@@H](CC(C)C)C(=O)N[C@H](C(=O)NCC(N)=O)CSCC(=O)N[C@@H](Cc2ccc(O)cc2)C(=O)N(C)[C@@H](C)C(=O)N[C@@H](CC(N)=O)C(=O)N2CCC[C@H]2C(=O)N[C@@H](CN)C(=O)N[C@@H](CC(C)C)C(=O)N2C[C@H](O)C[C@H]2C(=O)N[C@@H](Cc2c[nH]c3ccccc23)C(=O)N[C@@H](CCN)C(=O)N[C@@H](Cc2c[nH]c3ccccc23)C(=O)N1C [Example 6029]	0.385 to 6.74	4.78 to 72.9
CCCC[C@H]1C(=O)N(C)[C@@H](COc2cccc(C)c2)C(=O)N[C@@H](CCN)C(=O)N[C@H](C(=O)NCC(N)=O)CSCC(=O)N[C@@H](Cc2ccc(O)cc2)C(=O)N(C)[C@@H](C)C(=O)N[C@@H](CC(N)=O)C(=O)N2CCC[C@H]2C(=O)N[C@@H](CN)C(=O)N[C@@H](CCC(=O)O)C(=O)N2C[C@H](O)C[C@H]2C(=O)N[C@@H](Cc2c[nH]c3ccccc23)C(=O)N[C@@H](CO)C(=O)N[C@@H](Cc2c[nH]c3ccccc23)C(=O)N1C [Example 6030]	0.385 to 6.74	4.78 to 72.9
CCCC[C@H]1C(=O)N(C)[C@@H](COc2cccc(C)c2)C(=O)N[C@@H](CCN)C(=O)N[C@H](C(=O)NCC(N)=O)CSCC(=O)N[C@@H](Cc2ccc(O)cc2)C(=O)N(C)[C@@H](C)C(=O)N[C@@H](CC(=O)O)C(=O)N2CCC[C@H]2C(=O)N[C@@H](CN)C(=O)N[C@@H](CCC(=O)O)C(=O)N2C[C@H](O)C[C@H]2C(=O)N[C@@H](Cc2c[nH]c3ccccc23)C(=O)N[C@@H](CO)C(=O)N[C@@H](Cc2c[nH]c3ccccc23)C(=O)N1C [Example 6031]	0.385 to 6.74	4.78 to 72.9

Continued, values first:

IC50 [1] [nM]	IC50 [2] [nM]	Compound
0.385 to 6.74	0.158 to 4.71	CCCC[C@H]1C(=O)N(C)[C@@H](CCCC)C(=O)N[C@@H](CCCNC(=N)N)C(=O)N[C@H](C(=O)NCC(N)=O)CSCC(=O)N[C@@H](Cc2ccc(O)cc2)C(=O)N(C)[C@@H](C)C(=O)N[C@@H](CC(N)=O)C(=O)N2CCC[C@H]2C(=O)N[C@@H](CN)C(=O)N[C@@H](CC(C)C)C(=O)N2C[C@H](O)C[C@H]2C(=O)N[C@@H](Cc2c[nH]c3ccccc23)C(=O)N[C@@H](C(C)C)C(=O)N[C@@H](Cc2c[nH]c3ccccc23)C(=O)N1C [Example 6032] ({CH2CO}-Y[NMeA]NP[Dap]L[Hyp]WVW[NMeNle][NMeNle]RCG-NH2; thioether N-14)
0.385 to 6.74	0.158 to 4.71	CCCC[C@H]1C(=O)N(C)[C@@H](CCCC)C(=O)N[C@@H](CCCNC(=N)N)C(=O)N[C@H](C(=O)NCC(N)=O)CSCC(=O)N[C@@H](Cc2ccc(O)cc2)C(=O)N(C)[C@@H](C)C(=O)N[C@@H](CC(N)=O)C(=O)N2CCC[C@H]2C(=O)N[C@@H](CN)C(=O)N[C@@H](CC(C)C)C(=O)N2C[C@H](O)C[C@H]2C(=O)N[C@@H](Cc2c[nH]c3ccccc23)C(=O)N[C@@H](CC(N)=O)C(=O)N[C@@H](Cc2c[nH]c3ccccc23)C(=O)N1C [Example 6033] ({CH2CO}-Y[NMeA]NP[Dap]L[Hyp]WNW[NMeNle][NMeNle]RCG-NH2; thioether N-14)
0.385 to 6.74	0.158 to 4.71	CCCC[C@H]1C(=O)N(C)[C@@H](CCCC)C(=O)N[C@@H](CCCNC(=N)N)C(=O)N[C@H](C(=O)NCC(N)=O)CSCC(=O)N[C@@H](Cc2ccc(O)cc2)C(=O)N(C)[C@@H](C)C(=O)N[C@@H](CC(N)=O)C(=O)N2CCC[C@H]2C(=O)N[C@@H](CN)C(=O)N[C@@H](CC(C)C)C(=O)N2C[C@H](O)C[C@H]2C(=O)N[C@@H](Cc2c[nH]c3ccccc23)C(=O)N[C@@H](CC(C)C)C(=O)N[C@@H](Cc2c[nH]c3ccccc23)C(=O)N1C [Example 6034] ({CH2CO}-Y[NMeA]NP[Dap]L[Hyp]WLW[NMeNle][NMeNle]RCG-NH2; thioether N-14)
0.385 to 6.74	0.158 to 4.71	CCCC[C@H]1C(=O)N(C)[C@@H](CCCC)C(=O)N[C@@H](CCN)C(=O)N[C@H](C(=O)NCC(N)=O)CSCC(=O)N[C@@H](Cc2ccc(O)c(Br)c2)C(=O)N(C)[C@@H](C)C(=O)N[C@@H](CC(N)=O)C(=O)N2CCC[C@H]2C(=O)N[C@@H](Cc2cnc[nH]2)C(=O)N[C@@H](CC(C)C)C(=O)N2C[C@H](O)C[C@H]2C(=O)N[C@@H](Cc2c[nH]c3ccccc23)C(=O)N[C@@H](CCN)C(=O)N[C@@H](Cc2c[nH]c3ccccc23)C(=O)N1C [Example 6036] ({CH2CO}-[Tyr(3-Br)][NMeA]NPHL[Hyp]W[Dab]W[NMeNle][NMeNle][Dab]CG-NH2; thioether N-14)
0.385 to 6.74	0.158 to 4.71	CCCC[C@H]1C(=O)N(C)[C@@H](CCCC)C(=O)N[C@@H](CC(C)C)C(=O)N[C@H](C(=O)NCC(N)=O)CSCC(=O)N[C@@H](Cc2ccc(O)cc2)C(=O)N(C)[C@@H](C)C(=O)N[C@@H](CC(N)=O)C(=O)N2CCC[C@H]2C(=O)N[C@@H](CN)C(=O)N[C@@H](CC(C)C)C(=O)N2CCC[C@H]2C(=O)N[C@@H](Cc2c[nH]c3ccccc23)C(=O)N[C@@H](CCN)C(=O)N[C@@H](Cc2c[nH]c3ccccc23)C(=O)N1C [Example 6040] ({CH2CO}-Y[NMeA]NP[Dap]LPW[Dab]W[NMeNle][NMeNle]LCG-NH2; thioether N-14)
6.76 to 30.3	4.78 to 72.9	CCCC[C@H]1C(=O)N[C@@H](Cc2c[nH]c3ccccc23)C(=O)N[C@@H](CCN)C(=O)N[C@@H](Cc2c[nH]c3ccccc23)C(=O)N(C)[C@@H](CCCC)C(=O)N(C)[C@@H](CCCC)C(=O)N[C@@H](CC(C)C)C(=O)N[C@H](C(=O)NCC(N)=O)CSCC(=O)N[C@@H](Cc2ccc(O)cc2)C(=O)N(C)[C@@H](C)C(=O)N[C@@H](CC(N)=O)C(=O)N2CCC[C@H]2C(=O)N[C@@H](CN)C(=O)N[C@@H](CC(C)C)C(=O)N1C [Example 6041] ({CH2CO}-Y[NMeA]NP[Dap]L[NMeNle]W[Dab]W[NMeNle][NMeNle]LCG-NH2; thioether N-14)
0.385 to 6.74	4.78 to 72.9	CCCC[C@H]1C(=O)N(C)[C@@H](CCCC)C(=O)N[C@@H](CC(C)C)C(=O)N[C@H](C(=O)NCC(N)=O)CSCC(=O)N[C@@H](Cc2ccc(O)cc2)C(=O)N(C)[C@@H](C)C(=O)N[C@@H](CC(N)=O)C(=O)N2CCC[C@H]2C(=O)N[C@@H](CN)C(=O)N[C@@H](CC(C)C)C(=O)N2C[C@@H](O)CC[C@H]2C(=O)N[C@@H](Cc2c[nH]c3ccccc23)C(=O)N[C@@H](CCN)C(=O)N[C@@H](Cc2c[nH]c3ccccc23)C(=O)N1C [Example 6042] ({CH2CO}-Y[NMeA]NP[Dap]L[X16]W[Dab]W[NMeNle][NMeNle]LCG-NH2; thioether N-14)
0.385 to 6.74	4.78 to 72.9	CCCC[C@H]1C(=O)N(C)[C@@H](CCCC)C(=O)N[C@@H](CCN)C(=O)N[C@H](C(=O)NCC(N)=O)CSCC(=O)N[C@@H](Cc2ccc(O)c(Br)c2)C(=O)N(C)[C@@H](C)C(=O)N[C@@H](CC(N)=O)C(=O)N2CCC[C@H]2C(=O)N[C@@H](Cc2cnc[nH]2)C(=O)N[C@@H](CC(C)C)C(=O)N(C)CC(=O)N[C@@H](Cc2c[nH]c3ccccc23)C(=O)N[C@@H](CCN)C(=O)N[C@@H](Cc2c[nH]c3ccccc23)C(=O)N1C [Example 6043] ({CH2CO}-[Tyr(3-Br)][NMeA]NPHL[Sar]W[Dab]W[NMeNle][NMeNle][Dab]CG-NH2; thioether N-14)
